Data from US7417066B2, “Inhibitors of soluble adenylate cyclase” (Schering AG, priority 2005, dated 2008).

Molecular target: soluble, sperm-specific adenylate cyclase (sAC) (Homo sapiens, UniProt Q96PN6)
Test: sAC assay (HTRF cAMP detection)
Format: biochemical
Settings: read-out: IC50 (μM), inhibition of soluble adenylate cyclase
Description: In a suitable buffer system, soluble, sperm-specific adenylate cyclase catalyzes the conversion of adenosine triphosphate (ATP) to cyclic adenosine monophosphate (cAMP) and pyrophosphate. Free cAMP generated in this way is then used in a competitive detection technique, in which the binding of a europium cryptate Eu[K]-labeled anti-cAMP antibody (anti-cAMP-Eu[K]-AB) to a modified allophycocyanine-1 molecule labeled with cAMP molecules (cAMP-XL665) is prevented. In the absence of exogenous cAMP, after excitation at 335 nm there is Fluorescence Resonance Energy Transfer (FRET) between the anti-cAMP-Eu[K]-AB (FRET donor) and the cAMP-XL665 molecule (FRET acceptor). This process is quantified, time-resolved, on the basis of the emission of the FRET acceptor XL665 (665 nm and 620 nm). A decrease in signal (measured as Well Ratio; calculated from the Formula: [(E665 nm/E620 nm)×10000]) can be attributed to the presence of cAMP and thus to the activity of sAC. First, 1.5 μl of the test substance (in 30% DMSO) is placed in each well of a 384-well test plate (polystyrene; 384, NV), and in the solvent controls only 30% DMSO. Then 10 μl of a dilute sAC enzyme solution is applied (enzyme stock solution in 300 mM NaCl, 10% glycerol; pH 7.6; enzyme intermediate and final dilution a) 1:10 and b) 1:2000 in each case in: 1.0 mM MnCl2; 0.2% BSA; 50 mM Tris pH 7.5 in H2O). […]
Next, 8 μl of detection solution 1 is placed in a well of the 384-well measuring plate (measuring plate: polystyrene; 384, SV—black; detection solution 1: 50 μl cAMP-XL665; 950 μl reconstituted buffer; 2200 μl PBS; cAMP-XL665: prepared by adding 5 ml H2O to the lyophilized product according to the instructions in Cis bio Kit: 62AMPPEC; storage: in aliquots at −80° C.). […] After further incubation for 90 min at room temperature, the HTRF result is measured either on the Packard Discovery or with the RubiStar HTRF measuring instrument (delay: 50 μs; integration time: 400 μs).

soluble, sperm-specific adenylate cyclase (sAC), sequence (Q96PN6 whole entry): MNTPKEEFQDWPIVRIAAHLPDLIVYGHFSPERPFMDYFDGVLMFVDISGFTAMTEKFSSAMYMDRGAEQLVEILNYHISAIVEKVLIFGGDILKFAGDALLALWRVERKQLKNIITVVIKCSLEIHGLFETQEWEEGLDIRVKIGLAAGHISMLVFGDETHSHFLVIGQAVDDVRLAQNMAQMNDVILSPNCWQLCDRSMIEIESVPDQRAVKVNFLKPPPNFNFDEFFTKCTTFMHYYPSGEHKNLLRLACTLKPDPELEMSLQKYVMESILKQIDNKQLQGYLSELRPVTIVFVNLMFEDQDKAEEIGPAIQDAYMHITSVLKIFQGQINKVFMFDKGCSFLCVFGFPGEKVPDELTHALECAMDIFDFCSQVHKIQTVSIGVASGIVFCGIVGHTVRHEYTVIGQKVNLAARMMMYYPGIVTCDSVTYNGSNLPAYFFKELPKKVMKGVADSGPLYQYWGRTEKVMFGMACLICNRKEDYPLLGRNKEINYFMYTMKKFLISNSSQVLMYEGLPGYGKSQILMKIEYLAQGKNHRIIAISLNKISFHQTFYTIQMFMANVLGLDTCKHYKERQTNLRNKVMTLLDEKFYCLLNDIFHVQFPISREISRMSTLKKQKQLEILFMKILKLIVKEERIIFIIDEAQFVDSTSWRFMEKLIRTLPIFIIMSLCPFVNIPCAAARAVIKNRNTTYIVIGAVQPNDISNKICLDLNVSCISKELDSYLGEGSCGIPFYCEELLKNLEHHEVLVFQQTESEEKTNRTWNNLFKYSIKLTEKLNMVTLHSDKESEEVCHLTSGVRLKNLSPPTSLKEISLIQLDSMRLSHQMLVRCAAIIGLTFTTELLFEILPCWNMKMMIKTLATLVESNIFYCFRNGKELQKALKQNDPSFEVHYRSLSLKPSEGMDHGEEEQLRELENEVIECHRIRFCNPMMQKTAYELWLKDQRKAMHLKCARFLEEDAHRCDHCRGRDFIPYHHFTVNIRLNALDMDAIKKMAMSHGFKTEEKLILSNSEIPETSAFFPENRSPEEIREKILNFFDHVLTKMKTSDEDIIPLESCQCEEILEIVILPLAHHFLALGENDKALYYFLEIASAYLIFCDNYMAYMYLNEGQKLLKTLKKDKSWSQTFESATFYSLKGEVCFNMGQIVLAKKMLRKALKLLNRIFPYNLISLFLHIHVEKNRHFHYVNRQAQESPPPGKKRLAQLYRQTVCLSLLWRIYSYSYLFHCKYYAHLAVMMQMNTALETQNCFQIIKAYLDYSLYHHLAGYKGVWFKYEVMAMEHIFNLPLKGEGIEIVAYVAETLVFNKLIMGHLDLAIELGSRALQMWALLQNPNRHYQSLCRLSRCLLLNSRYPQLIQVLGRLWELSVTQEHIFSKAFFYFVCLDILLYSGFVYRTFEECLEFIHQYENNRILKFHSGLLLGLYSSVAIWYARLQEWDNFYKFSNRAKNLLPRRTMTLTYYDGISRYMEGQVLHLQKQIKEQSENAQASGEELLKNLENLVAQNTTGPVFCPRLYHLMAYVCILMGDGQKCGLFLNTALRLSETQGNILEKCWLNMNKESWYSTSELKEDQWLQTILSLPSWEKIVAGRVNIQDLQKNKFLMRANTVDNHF

| IC50 [µM] | SMILES |
| --- | --- |
| 4.3 | CC(O)CNC(=O)c1oc2ccc(NS(=O)(=O)c3ccc(C(C)(C)C)cc3)cc2c1-c1ccccc1 (racemic) [Example 16, (+/−)-5-(4-tert-Butylphenylsulfonylamino)-3-phe-nyl-1-benzofuran-2-carboxylicacid-(2-hydroxypropyl)amide] |
| 8.5 | CC(CO)NC(=O)c1oc2ccc(NS(=O)(=O)c3ccc(C(C)(C)C)cc3)cc2c1-c1ccccc1 (racemic) [Example 17, (+/−)-5-(4-tert-Butylbenzenesulfonylamino)-3-phe-nyl-1-benzofuran-2-carboxylicacid-(2-hydroxy-1-meth-ylethyl)amide] |
| 5.2 | CC(C)(C)c1ccc(S(=O)(=O)Nc2ccc3oc(C(=O)NCCN4CCOCC4)c(-c4ccccc4)c3c2)cc1 [Example 6, 5-(4-tert-Butylbenzenesulfonylamino)-3-phe-nyl-1-benzofuran-2-carboxylicacid-(2-morpholin-4-ylethyl)amide] |
